These are literature values, as cited in patent publication US10786531B2, “Mineral salt-sulfonic acid compositions and methods of use” (BMG PHARMA SPA, priority 2009, dated 2020).

Like-named read-outs stand apart in the source and are kept apart here.

For series [1] the following is noted: solutions of 0.2-1%.

For `CC(=O)[O-].CC(=O)[O-].[Zn+2]` [zinc acetate], the dermal irritancy entry in the series with dermal abrasion (20% aqueous) is “slightly less irritant”.

Turning to `[Cl-].[Cl-].[Zn+2]` [zinc chloride], the dermal irritancy entry with dermal abrasion (1% aqueous) is listed as “severe irritant”.

On to `[O]=[Zn]` [zinc oxide], for which the dermal irritancy result in the series on dermal abrasion (20% suspension) is given as “not overtly irritant”.

Turning to `O=S(=O)([O-])[O-].[Zn+2]` [zinc sulfate], the dermal irritancy result with dermal abrasion (1% aqueous) is “not overtly irritant”. The “irritation when applied circumorally” value in series [1] is listed as “severe irritation”.

Regarding zinc pyrithione, the dermal irritancy entry in the series with dermal abrasion (20% suspension) is on record as “not overtly irritant”.
